According to publication PMC12384620, “Hit-to-Lead Studies of Pyrazinylpiperazines against Visceral Leishmaniasis: Pharmacokinetic Profile and In Vivo Efficacy of Potent Compounds against Leishmania infantum” (ACS Pharmacology & Translational Science, 2025):

What was measured:
L. braziliensis SOD = assay: SOD interaction by differential scanning fluorimetry; type: binding, Leishmania braziliensis
Procedure: (§1) The assays were performed using an Applied Biosystems 7500 Fast RT-PCR system (Applied Biosystems, Foster City, CA, USA), in triplicate, with 96-well PCR plates (BioRad, Hercules, CA, USA) sealed with transparent capping strips (BioRad, Hercules, CA, USA). The plates were centrifugated for 2 min at 2000 rpm at 25 °C. The temperature was then ramped up from 25 to 85 °C, increasing 1 °C per minute, while fluorescence signals were monitored using SYPRO Orange dye, with an excitation wavelength of 492 nm and an emission wavelength of 610 nm.
(§2) The DSF conditions used in this study have been previously described. , Briefly, each well contained 10 μM L. braziliensis Hsp90 or 5 μM L. braziliensis SOD, 1 μL of 5X SYPRO Orange, buffer A (50 mM PBS, 100 mM NaCl, pH 7.0 for L. braziliensis SOD or 50 mM Tris-HCl, 100 mM KCl, pH 8.0 for L. braziliensis Hsp90), and either 1 μL DMSO (5% v/v, negative control) or 1 – 6 (diluted in DMSO). […] Raw fluorescence data was collected using the Applied Biosystems 7500 Fast Software v2.0 and then exported to NAMI for Tm calculation via the first-derivative method. Differences in Tm values (ΔTm) were considered statistically significant when p < 0.05, as determined by the Kruskal–Wallis test followed by Dunn’s post-test for multiple comparisons, performed using GraphPad Prism 10.0 (GraphPad Software, San Diego, CA, USA, www.graphpad.com).

[1] = PAMPA gastrointestinal tract permeability; type: in vitro ADME; details: for Papp at 8 h, 0.5 mM: PAMPA-GI, read-out: GI Pe
Procedure: A 10 mM solution of each compound in DMSO was prepared and subsequently homogenized in a 5 mL flask with 4.75 mL PBS (pH 6.6) (10 mM). […] 180 μL of a PBS (pH 7.4)/DMSO (95:5) solution were then added to the wells of a 96-well receiver plate, and 5 μL of a L-α-phosphatidylcholine solution (20 mg/mL in dodecane) to the wells of a 96-well donor plate. After 5 min, 180 μL of the solutions containing each compound were added to the wells of the donor plate, in triplicate, and the donor plate was carefully placed over the receiver plate in a “sandwich-like” system, which was left stirring (50 rpm) for 8 h at rt in a sealed vessel containing 10 mL PBS (pH 7.4). Afterward, the donor plate was removed, and the content of the receiver plate was transferred to a UV reading plate, which was read using a microplate reader (SpectraMax 5 – Molecular Devices). A reference sample for the internal correction of the microplate reader was prepared using 180 μL of the PBS (pH 7.4)/DMSO (95:5) solution (adapted from refs and ). The optical density values obtained from the content of the receiver plate were compared with the ones obtained from readings performed with the initial solutions containing each compound, before their addition to the donor plate. […] The optical density values from the receptor plate were compared to those from experimental controls to determine the F a value for each compound, using Microsoft Excel.

L. braziliensis Hsp83 = assay: Hsp83 interaction by differential scanning fluorimetry; type: binding, Leishmania braziliensis
Procedure: as §1, §2

L. infantum GSK-3B = assay: GSK-3B enzyme inhibition (LANCE TR-FRET); type: biochemical; details: concentrations up to 30 μM, 10 nM enzyme
Procedure: The following controls were included: protein in 1% DMSO (100% activity), 10 μM AZD-5438 (0% activity), and buffer without enzyme (blank).
To detect the progress of the enzymatic reaction, a commercially available TR-FRET-based assay (LANCE TR-FRET, PerkinElmer) was used. In the enzymatic step, purified protein kinase and the peptide substrate were incubated with compounds 1 – 6 for 30 min at 25 °C before the addition of ATP to start the reaction, which was run at 30 °C (2 h for GSK-3A or 1 h 15 min for GSK-3B). […]. […]
The fluorescence signal was measured using a CLARIOstar microplate reader (BMG LABTECH) set with an excitation wavelength of 320 nm and an emission wavelength of 665 nm. MARS software (BMG LABTECH) was used to analyze the data obtained after reading each plate. The background fluorescence signal (blank) was subtracted from the fluorescence signal obtained for each reaction, in order to reflect the specific signal of enzymatic activity. The data was then analyzed with the GraphPad Prism v10 software, using the equation “log(inhibitor) vs response - variable slope (four parameters) - Y = Bottom + (Top-Bottom)/(1 + 10̂((LogIC50-X)* HillSlope))” to obtain dose–response curves and determine IC50 values. […]

L. braziliensis = assay: Inhibition of growth of L. braziliensis in THP-1 macrophages; type: cell-based; details: Leishmania braziliensis
Excerpt: 1 In Vitro Antileishmanial Potency, Selectivity Index, and ADME Properties of Compounds 1 – 6 | column: L. braziliensis IC50 (μM)^b (SI)^b

L. infantum = assay: Antileishmanial activity against L. infantum amastigotes in THP-1 macrophages; type: cell-based; details: Leishmania infantum; growth of L. infantum in THP-1 macrophages, 72 h
Procedure: The in vitro anti-L. infantum activity (IC50) of each compound was evaluated on THP-1 cells (human leukemia monocytic cell line) infected with L. infantum promastigotes, and the in vitro cytotoxicity (CC50) was determined over the THP-1 cell line. The selectivity index (SI) was calculated as the ratio of the CC50 value determined in the cytotoxicity assay, divided by the IC50 value determined in the antileishmanial activity assay.
Cells derived from the human monocytic strain THP-1 were cultured in complete Rowell Park Memorial Institute (RPMI)-1640 medium (supplemented with 10% fetal bovine serum, 100 U/mL penicillin, and 100 μg/mL streptomycin). Monocytes were differentiated into macrophages by the addition of 20 ng/mL phorbol myristate acetate (PMA). After 72 h, the macrophages (5 × 10^4), in black 96-well microtiter plates (Corning Incorporated, Corning, NY), were infected with Leishmania (Leishmania) infantum (MHOM/BR/1974/PP75) promastigotes transfected with gene tdTomato, on the second day of the stationary phase (20 parasites per macrophage) for 4 h. […] The IC50 values were determined by nonlinear regression using a variable slope model (log(concentration) vs growth inhibition) with the GraphPadPrism v8.2.0 (CA, USA) software. Controls with uninfected cells, untreated infected cells, and infected cells treated with amphotericin B at 0.25 μM (positive control) or DMSO 1% were used. Quadruplicates were run on the same plate, and the experiments were repeated at least once.

Compound	effect on Tm of L. braziliensis SOD (DSF) (L. braziliensis SOD; 100 μM)	Fa, fraction absorbed (GI) [1]	Papp at 8 h, 0.5 mM [1]	effect on Tm of L. braziliensis Hsp83 (DSF) (L. braziliensis Hsp83; 100 μM)	inhibition of L. infantum GSK-3B (L. infantum GSK-3B)	IC50 (L. braziliensis)	IC50 (L. infantum)	interaction with L. braziliensis SOD (DSF titration curves) (L. braziliensis SOD; 100 μM to 12.5 μM)	interaction with L. braziliensis Hsp83 (DSF titration curves) (L. braziliensis Hsp83; 100 μM to 12.5 μM)
O=C(c1ccc(O)cc1)N1CCN(c2cnccn2)CC1 [Compound 2, (4-Hydroxyphenyl)(4-(pyrazin-2-yl)piperazin-1-yl)methanone]	failed to exert statistically significant effects	62.71%	2.59 ×10⁻⁶ cm/s	failed to exert statistically significant effects	no inhibitory effect	7.6 ± 3.2 µM	3.1 ± 1.3 µM		
O=C(c1ccc(O)c(Cl)c1)N1CCN(c2cnccn2)CC1 [Compound 1, (3-Chloro-4-hydroxyphenyl)(4-(pyrazin-2-yl)piperazin-1-yl)methanone]		99.26%	12.9 ×10⁻⁶ cm/s		did not exert any inhibition	11.7 ± 0.7 µM	11.9 ± 2.2 µM	neither of these compounds interacts	neither of these compounds interacts
